Source: patent US11208412B2 (DAEGU-GYEONGBUK MEDICAL INNOVATION FOUNDATION, priority 2017, dated 2021)

What was measured:
Test in all cases: Kinase selectivity, DiscoverX scanMAX Kinase assay panel (% control)
Format in all cases: binding
[1] = biological target: T1, kinases of the scanMAX Kinase assay panel (Homo sapiens, UniProt O43683); conditions: BUB1; 1 uM
T1 construct: purchased DiscoverX Co. (contract measurement) scanMAX Kinase assay panel
Summary of the method: (§1)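 Compounds tested at 1 uM against the scanMAX kinase panel. Signal expressed as % control = (compound − positive control)/(DMSO negative control − positive control) × 100, where positive control = 0% and DMSO = 100%; below 35% counted as activity on that kinase.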

[2] = biological target: T2, kinases of the scanMAX Kinase assay panel (Homo sapiens, UniProt P31749); conditions: AKT1; 1 uM
T2 construct: purchased DiscoverX Co. (contract measurement) scanMAX Kinase assay panel
Summary of the method: as §1

[3] = biological target: T3, kinases of the scanMAX Kinase assay panel (Homo sapiens, UniProt P00533, L858R/T790M); conditions: EGFR(L858R, T790M); 1 uM
T3 construct: purchased DiscoverX Co. (contract measurement) scanMAX Kinase assay panel
Summary of the method: as §1

[4] = biological target: T4, kinases of the scanMAX Kinase assay panel (Homo sapiens, UniProt Q9P2K8, S808G); conditions: GCN2(Kin.Dom.2, S808G); 1 uM
T4 construct: purchased DiscoverX Co. (contract measurement) scanMAX Kinase assay panel
Summary of the method: as §1

[5] = biological target: T5, kinases of the scanMAX Kinase assay panel (Homo sapiens, UniProt P42679); conditions: CTK; 1 uM
T5 construct: purchased DiscoverX Co. (contract measurement) scanMAX Kinase assay panel
T5 sequence (P42679 1-507): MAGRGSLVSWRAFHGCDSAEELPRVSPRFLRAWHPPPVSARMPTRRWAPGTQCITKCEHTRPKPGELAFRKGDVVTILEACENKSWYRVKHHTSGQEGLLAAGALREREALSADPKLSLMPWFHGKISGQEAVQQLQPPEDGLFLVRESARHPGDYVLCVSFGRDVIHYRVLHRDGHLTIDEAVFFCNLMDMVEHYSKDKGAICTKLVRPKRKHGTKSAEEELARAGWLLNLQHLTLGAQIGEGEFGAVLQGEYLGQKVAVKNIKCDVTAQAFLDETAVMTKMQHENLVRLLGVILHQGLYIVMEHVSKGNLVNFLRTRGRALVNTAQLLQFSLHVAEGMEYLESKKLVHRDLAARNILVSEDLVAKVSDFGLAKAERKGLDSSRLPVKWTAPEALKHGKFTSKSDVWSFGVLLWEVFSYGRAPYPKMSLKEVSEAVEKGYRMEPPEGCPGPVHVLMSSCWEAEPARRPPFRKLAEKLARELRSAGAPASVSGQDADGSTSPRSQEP
Summary of the method: as §1

[6] = biological target: T6, kinases of the scanMAX Kinase assay panel (Homo sapiens, UniProt Q8N752); conditions: CSNK1A1L; 1 uM
T6 construct: purchased DiscoverX Co. (contract measurement) scanMAX Kinase assay panel
T6 sequence (Q8N752 1-337): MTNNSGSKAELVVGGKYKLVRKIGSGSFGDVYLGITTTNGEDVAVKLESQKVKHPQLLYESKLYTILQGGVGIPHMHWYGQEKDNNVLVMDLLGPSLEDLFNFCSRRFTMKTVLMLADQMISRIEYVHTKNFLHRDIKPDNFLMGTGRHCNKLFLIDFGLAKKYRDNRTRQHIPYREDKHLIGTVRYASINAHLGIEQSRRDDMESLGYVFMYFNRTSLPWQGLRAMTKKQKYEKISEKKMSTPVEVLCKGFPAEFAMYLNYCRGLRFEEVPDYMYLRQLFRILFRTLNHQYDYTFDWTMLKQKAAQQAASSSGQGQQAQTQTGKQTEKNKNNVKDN
Summary of the method: as §1

[7] = biological target: T7, kinases of the scanMAX Kinase assay panel (Homo sapiens, UniProt Q9UKI8); conditions: kinase TLK1; 1 uM in DMSO
T7 construct: purchased DiscoverX Co. (contract measurement) scanMAX Kinase assay panel
T7 sequence (Q9UKI8 1-766): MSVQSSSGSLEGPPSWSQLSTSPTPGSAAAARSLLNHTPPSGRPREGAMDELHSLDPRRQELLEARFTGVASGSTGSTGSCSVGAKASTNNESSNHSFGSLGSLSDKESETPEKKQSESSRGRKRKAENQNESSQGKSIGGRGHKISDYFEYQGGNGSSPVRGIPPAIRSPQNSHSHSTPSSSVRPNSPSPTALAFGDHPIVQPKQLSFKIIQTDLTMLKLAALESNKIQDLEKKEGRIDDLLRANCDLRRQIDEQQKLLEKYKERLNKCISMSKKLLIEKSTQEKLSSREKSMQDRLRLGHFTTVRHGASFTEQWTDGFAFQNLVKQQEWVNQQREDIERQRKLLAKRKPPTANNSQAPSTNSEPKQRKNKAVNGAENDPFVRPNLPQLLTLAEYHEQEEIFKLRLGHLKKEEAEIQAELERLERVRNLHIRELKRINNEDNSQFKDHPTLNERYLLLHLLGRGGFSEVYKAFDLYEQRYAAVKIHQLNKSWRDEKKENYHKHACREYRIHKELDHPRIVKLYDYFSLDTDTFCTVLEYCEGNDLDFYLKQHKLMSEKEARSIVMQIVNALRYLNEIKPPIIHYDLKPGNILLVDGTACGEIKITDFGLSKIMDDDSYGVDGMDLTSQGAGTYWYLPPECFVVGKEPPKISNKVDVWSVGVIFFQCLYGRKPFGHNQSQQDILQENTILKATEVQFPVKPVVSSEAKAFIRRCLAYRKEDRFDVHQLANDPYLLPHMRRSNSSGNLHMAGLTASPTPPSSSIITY
Summary of the method: as §1

T1 sequence (O43683 whole entry): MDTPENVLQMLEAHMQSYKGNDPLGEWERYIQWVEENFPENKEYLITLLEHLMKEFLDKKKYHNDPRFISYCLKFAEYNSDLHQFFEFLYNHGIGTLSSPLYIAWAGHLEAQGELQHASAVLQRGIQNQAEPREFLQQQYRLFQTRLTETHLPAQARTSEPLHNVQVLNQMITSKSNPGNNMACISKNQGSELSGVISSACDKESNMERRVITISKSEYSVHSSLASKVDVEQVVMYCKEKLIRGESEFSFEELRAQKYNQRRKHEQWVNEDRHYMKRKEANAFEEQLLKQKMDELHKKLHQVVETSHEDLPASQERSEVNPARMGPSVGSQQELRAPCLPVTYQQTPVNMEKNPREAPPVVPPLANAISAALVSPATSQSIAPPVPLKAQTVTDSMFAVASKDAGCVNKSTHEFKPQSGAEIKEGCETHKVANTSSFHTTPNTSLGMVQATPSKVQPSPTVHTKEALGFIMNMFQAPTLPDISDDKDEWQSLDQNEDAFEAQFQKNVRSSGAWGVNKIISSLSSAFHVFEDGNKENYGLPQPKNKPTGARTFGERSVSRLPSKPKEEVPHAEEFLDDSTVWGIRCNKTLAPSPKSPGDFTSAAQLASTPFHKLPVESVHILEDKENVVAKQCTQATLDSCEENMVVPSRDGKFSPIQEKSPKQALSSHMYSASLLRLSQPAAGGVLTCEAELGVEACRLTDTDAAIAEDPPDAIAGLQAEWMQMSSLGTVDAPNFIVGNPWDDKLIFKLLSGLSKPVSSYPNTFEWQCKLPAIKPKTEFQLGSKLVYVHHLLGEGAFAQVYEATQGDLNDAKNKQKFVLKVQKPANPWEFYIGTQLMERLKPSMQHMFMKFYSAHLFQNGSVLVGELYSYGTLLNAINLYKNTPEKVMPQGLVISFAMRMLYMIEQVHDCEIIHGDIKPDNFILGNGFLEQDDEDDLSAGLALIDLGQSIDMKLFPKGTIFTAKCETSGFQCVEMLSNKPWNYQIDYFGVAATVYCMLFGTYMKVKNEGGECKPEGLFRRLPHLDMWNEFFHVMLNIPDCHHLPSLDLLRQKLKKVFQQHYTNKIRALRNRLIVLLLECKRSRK
T2 sequence (P31749 whole entry): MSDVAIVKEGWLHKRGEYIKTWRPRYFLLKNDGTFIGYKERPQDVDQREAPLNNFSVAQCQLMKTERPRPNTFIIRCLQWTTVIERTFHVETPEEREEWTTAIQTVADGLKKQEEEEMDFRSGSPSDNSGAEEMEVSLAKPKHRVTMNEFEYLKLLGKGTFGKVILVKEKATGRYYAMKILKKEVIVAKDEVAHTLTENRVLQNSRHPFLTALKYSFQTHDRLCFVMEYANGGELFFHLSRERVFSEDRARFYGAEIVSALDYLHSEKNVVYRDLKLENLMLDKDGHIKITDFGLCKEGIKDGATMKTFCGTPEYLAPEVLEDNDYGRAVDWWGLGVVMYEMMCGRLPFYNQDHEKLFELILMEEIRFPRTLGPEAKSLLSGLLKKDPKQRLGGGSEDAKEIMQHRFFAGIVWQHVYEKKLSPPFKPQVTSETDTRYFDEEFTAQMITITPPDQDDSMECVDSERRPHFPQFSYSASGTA
T4 sequence (Q9P2K8 whole entry S808G): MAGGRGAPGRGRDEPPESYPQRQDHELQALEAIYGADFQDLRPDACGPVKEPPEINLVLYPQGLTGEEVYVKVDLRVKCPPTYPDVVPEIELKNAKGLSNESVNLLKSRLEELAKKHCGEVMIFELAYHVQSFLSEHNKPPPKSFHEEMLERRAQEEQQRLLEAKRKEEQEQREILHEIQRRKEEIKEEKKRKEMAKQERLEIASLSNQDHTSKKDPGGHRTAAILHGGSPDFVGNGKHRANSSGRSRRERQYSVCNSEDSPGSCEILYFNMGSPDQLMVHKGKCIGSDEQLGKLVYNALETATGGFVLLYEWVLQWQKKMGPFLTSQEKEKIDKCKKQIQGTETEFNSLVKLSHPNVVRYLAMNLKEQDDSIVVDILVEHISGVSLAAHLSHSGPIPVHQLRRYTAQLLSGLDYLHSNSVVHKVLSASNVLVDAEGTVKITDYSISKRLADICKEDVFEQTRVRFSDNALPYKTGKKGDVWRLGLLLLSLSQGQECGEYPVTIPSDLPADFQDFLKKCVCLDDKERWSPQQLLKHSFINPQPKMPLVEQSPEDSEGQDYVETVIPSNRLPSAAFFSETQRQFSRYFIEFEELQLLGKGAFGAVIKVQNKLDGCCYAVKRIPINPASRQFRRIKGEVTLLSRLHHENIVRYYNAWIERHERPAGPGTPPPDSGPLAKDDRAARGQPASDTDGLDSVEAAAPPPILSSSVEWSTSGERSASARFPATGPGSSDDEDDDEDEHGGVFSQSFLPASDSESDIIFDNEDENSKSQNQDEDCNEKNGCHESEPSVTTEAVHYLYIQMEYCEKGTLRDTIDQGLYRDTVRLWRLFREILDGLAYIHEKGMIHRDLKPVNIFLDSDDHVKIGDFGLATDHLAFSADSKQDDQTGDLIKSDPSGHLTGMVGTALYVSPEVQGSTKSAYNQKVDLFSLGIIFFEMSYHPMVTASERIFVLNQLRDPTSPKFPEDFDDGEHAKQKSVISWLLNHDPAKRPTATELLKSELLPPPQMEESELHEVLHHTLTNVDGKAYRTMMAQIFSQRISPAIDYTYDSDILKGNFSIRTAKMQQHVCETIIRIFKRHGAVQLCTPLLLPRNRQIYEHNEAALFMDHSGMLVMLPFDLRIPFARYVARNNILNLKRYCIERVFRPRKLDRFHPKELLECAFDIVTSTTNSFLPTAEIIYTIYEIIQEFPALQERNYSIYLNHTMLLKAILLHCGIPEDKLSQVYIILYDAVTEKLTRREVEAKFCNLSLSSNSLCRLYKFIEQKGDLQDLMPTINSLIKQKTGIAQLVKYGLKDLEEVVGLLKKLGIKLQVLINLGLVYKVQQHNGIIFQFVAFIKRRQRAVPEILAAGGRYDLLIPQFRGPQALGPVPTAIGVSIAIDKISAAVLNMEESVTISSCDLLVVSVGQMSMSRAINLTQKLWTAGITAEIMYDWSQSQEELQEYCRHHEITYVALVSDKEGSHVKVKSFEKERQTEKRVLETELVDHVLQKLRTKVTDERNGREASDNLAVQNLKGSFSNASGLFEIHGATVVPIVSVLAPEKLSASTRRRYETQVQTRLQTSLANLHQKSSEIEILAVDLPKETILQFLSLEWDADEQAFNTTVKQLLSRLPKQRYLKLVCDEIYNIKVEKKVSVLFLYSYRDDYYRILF
T3 sequence (P00533 25-1210 T790M/L858R): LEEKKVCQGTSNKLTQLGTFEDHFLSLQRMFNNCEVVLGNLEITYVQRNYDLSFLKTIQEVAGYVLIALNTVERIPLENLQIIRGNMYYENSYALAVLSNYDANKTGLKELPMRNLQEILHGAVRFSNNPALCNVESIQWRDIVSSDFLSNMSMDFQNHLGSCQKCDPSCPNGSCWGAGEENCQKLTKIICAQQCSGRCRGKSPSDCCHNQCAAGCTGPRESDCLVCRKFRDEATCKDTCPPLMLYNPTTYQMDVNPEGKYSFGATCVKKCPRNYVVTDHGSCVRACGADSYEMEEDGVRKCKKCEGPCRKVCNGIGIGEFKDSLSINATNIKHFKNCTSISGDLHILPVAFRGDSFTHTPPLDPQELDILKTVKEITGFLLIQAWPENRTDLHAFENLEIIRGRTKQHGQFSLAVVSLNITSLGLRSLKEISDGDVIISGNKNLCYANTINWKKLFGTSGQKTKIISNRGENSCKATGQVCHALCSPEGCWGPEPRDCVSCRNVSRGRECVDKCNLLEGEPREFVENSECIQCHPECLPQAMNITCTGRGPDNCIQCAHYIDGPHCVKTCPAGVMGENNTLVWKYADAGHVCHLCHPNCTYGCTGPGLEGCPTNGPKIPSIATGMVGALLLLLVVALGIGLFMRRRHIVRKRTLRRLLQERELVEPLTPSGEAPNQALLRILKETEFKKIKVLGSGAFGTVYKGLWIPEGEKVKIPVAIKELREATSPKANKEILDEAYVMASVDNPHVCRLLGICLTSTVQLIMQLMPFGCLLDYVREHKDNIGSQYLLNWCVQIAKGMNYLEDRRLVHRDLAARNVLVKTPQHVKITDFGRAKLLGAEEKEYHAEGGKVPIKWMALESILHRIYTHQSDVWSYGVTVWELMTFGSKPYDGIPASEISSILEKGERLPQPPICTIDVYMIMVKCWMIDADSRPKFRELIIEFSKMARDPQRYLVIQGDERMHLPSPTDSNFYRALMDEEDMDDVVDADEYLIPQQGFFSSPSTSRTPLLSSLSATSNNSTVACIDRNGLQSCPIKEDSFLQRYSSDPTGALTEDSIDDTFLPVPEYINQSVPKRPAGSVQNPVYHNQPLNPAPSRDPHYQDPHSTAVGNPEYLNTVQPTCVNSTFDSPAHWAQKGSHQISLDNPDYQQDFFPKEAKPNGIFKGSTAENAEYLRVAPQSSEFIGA

Compound	remaining binding at 1 µM [1] [%]	remaining binding at 1 µM [2] [%]	remaining binding at 1 µM [3] [%]	remaining binding at 1 µM [4] [%]	remaining binding at 1 µM [5] [%]	remaining binding at 1 µM [6] [%]	remaining binding at 1 µM [7] [%]
CCNc1nc(Nc2ccc(C(=O)N3CCC(N4CCOCC4)CC3)cc2OC)nc2[nH]cc(C(F)(F)F)c12 [Example 104, (4-((4-(ethylamino)-5-(trifluoromethyl)-7H-pyrrolo[2,3-d]pyrimidine-2-yl)amino)-3-methoxyphenyl)(4-morpholinopiperidine-1-yl)methanone]	95	100	55	64	100	15	72
CNc1nc(Nc2ccc(C(=O)N3CCOCC3)cc2OC)nc2[nH]cc(C#N)c12 [Example 1, 2-((2-methoxy-4-(morpholine-4-carbonyl)phenyl)amino)-4-(methylamino)-7H-pyrrolo[2,3-d]pyrimidine-5-carbonitrile]	36	83	54	93	98	34	95
CC1(Nc2nc(Nc3cnn([C@H]4CCN(C5COC5)C[C@@H]4F)c3Cl)nc3[nH]cc(C#N)c23)CC1 [Example 52, 2-((5-chloro-1-((3S,4S)-3-fluoro-1-(oxetane-3-yl)piperidine-4-yl)-1H-pyrazole-4-yl)amino)((1-methylcyclopropyl)amino)-7H-pyrrolo[2,3-d]pyrimidine-5-carbonitrile]	0.2	100	2.3	33	47	0.85	78
